From patent US11685732B2, “MYST family histone acetyltransferase inhibitors” (Epizyme, Inc., priority 2017, dated 2023)
pIC50: −log10 of the molar value.

How the values were obtained:
KAT-5 = KAT-5 (Homo sapiens (Human), UniProt Q92993); assay: KAT-5 biochemical inhibition assay (SAMDI mass spectrometry)
How it was run: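 KAT-5 at 9 nM final was preincubated with serially diluted compound (2% DMSO) in 50 mM Tris pH 8.0 with 1 mM DTT. Reaction ran with 1 μM peptide substrate and 0.5 μM acetyl-CoA for 90 min at 25° C, was quenched with 0.5% formic acid, and was read by SAMDI-TOF mass spectrometry.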

KAT-7 = KAT-7 (Homo sapiens (Human), UniProt O95251); assay: KAT-7 biochemical inhibition assay (SAMDI mass spectrometry)
How it was run: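 KAT-7 (6 nM) was pre-incubated with serially diluted compound (2% DMSO) in Tris pH 8.0 with DTT. Reaction with 1 μM peptide and 2 μM acetyl-CoA ran 120 min at 25 °C and was stopped with 0.5% formic acid. Acetylation was read by SAMDI-TOF mass spectrometry to give IC50.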

KAT-6A = KAT-6A (Homo sapiens (Human), UniProt Q92794); assay: KAT-6A biochemical inhibition assay (SAMDI mass spectrometry)
How it was run: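 Enzyme (12.5 nM final) pre-incubated with serially diluted compounds (2% DMSO final) in 50 mM Tris pH 8.0 with Tween20, gelatin and 1 mM DTT. Reaction started with 1 μM peptide substrate and 1 μM acetyl-CoA, run 90 min at 25 °C, quenched with 0.5% formic acid, read by SAMDI-TOF mass spectrometry; IC50 derived.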

KAT-8 = KAT-8 (Homo sapiens (Human), UniProt Q9H7Z6); assay: KAT-8 biochemical inhibition assay (SAMDI mass spectrometry)
How it was run: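 Compounds in 2% DMSO pre-incubated with 12.5 nM enzyme in 50 mM Tris pH 8.0 with Tween20, gelatin and 1 mM DTT. Then 1 μM peptide and 5 μM acetyl-CoA were added, 90 min at 25 °C; formic acid stop and SAMDI-TOF mass spectrometry for IC50.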

Chain of KAT-6A (Q92794 other isoform, or with tags, fused parts or gaps): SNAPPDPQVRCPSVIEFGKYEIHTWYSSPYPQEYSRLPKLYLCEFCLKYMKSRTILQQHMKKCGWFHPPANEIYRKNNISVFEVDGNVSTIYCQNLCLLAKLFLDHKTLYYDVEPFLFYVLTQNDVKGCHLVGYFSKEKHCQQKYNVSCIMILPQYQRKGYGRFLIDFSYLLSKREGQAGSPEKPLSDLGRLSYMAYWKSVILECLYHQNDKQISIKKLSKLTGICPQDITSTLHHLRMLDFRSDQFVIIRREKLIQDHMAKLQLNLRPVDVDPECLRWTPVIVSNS
Chain of KAT-5 (Q92993 other isoform, or with tags, fused parts or gaps): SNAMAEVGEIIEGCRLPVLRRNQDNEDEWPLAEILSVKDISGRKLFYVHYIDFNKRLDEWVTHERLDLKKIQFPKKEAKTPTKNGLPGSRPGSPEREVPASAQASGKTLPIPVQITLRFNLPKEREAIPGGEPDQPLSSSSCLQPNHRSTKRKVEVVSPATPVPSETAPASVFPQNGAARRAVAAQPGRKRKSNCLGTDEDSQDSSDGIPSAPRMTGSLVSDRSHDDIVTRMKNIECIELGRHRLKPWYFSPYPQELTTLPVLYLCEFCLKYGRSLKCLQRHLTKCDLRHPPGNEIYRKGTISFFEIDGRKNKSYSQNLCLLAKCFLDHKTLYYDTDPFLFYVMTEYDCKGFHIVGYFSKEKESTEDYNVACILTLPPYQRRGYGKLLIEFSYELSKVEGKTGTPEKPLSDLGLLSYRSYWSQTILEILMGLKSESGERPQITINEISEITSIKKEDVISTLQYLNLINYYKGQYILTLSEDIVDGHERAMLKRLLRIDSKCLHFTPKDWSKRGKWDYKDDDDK
Chain of KAT-7 (O95251 other isoform, or with tags, fused parts or gaps): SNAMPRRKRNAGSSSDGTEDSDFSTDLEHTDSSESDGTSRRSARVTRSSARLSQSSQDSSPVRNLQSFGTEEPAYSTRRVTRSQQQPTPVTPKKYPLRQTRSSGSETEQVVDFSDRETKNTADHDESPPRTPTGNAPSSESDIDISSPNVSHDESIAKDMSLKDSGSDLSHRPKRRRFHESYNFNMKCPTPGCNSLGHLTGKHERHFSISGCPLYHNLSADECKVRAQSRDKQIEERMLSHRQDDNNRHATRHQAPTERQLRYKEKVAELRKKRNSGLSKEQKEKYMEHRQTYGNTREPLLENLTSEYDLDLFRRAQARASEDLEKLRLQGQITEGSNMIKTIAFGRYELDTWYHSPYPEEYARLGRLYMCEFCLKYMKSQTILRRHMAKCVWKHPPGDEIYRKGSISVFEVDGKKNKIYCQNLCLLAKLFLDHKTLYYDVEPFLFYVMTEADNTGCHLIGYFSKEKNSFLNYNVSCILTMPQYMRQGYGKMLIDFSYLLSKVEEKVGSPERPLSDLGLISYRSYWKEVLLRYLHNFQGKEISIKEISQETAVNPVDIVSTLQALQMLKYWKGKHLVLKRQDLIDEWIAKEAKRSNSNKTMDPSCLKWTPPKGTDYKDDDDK
Chain of KAT-8 (Q9H7Z6 other isoform, or with tags, fused parts or gaps): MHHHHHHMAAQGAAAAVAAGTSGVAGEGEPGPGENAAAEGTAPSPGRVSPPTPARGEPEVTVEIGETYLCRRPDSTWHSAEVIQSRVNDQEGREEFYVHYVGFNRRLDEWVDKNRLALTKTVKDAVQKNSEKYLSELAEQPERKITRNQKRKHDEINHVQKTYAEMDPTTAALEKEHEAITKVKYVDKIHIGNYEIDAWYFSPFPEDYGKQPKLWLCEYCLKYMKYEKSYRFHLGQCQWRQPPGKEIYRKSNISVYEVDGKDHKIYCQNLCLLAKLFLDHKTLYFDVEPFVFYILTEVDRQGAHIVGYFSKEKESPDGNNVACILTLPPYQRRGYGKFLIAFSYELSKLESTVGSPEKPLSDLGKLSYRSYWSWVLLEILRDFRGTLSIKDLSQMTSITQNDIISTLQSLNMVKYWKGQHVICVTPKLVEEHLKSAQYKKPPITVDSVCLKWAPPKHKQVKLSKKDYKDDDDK

Row | SMILES | pIC50 (KAT-5) | pIC50 (KAT-7) | pIC50 (KAT-6A) | pIC50 (KAT-8)
1 | CNC(=O)N1CCC(CS(=O)(=O)NNC(=O)c2cc(-c3cn(C)cn3)cc(Cl)c2F)C1 (stereo not drawn) [Compound I-78] | > 5.00 | > 5.00 | 4.30 to 5.00 | 4.30 to 5.00
2 | CN1CCC(CS(=O)(=O)NNC(=O)c2cc(-c3cn(C)cn3)cc(Cl)c2F)C1 (stereo not drawn) [Compound I-79] | 4.30 to 5.00 | > 5.00 | 4.30 to 5.00 | 4.30 to 5.00
3 | Cc1nc(-c2cc(Cl)c(F)c(C(=O)NNS(=O)(=O)CC3CCOCC3)c2)co1 [Compound I-80] | 4.30 to 5.00 | 4.30 to 5.00 | > 5.00 | 4.30 to 5.00
4 | Cc1ncc(-c2cc(Cl)c(F)c(C(=O)NNS(=O)(=O)CC3CCOCC3)c2)[nH]1 [Compound I-81] | > 5.00 | 4.30 to 5.00 | > 5.00 | 4.30 to 5.00
5 | CCS(=O)(=O)N1CCCC(CS(=O)(=O)NNC(=O)c2cc(-c3cn(C)cn3)cc(Cl)c2F)C1 (stereo not drawn) [Compound I-82] | > 5.00 | > 5.00 | > 5.00 | 4.30 to 5.00
6 | Cn1cnc(-c2cc(Cl)c(F)c(C(=O)NNS(=O)(=O)CC3CCN(C(=O)CCO)C3)c2)c1 (stereo not drawn) [Compound I-83] | 4.30 to 5.00 | > 5.00 | 4.30 to 5.00 | 4.30 to 5.00
7 | Cn1cnc(-c2cc(Cl)c(F)c(C(=O)NNS(=O)(=O)CC3CCN(S(=O)(=O)C4CC4)C3)c2)c1 (stereo not drawn) [Compound I-84] | > 5.00 | > 5.00 | > 5.00 | 4.30 to 5.00
8 | CCCS(=O)(=O)N1CCC(CS(=O)(=O)NNC(=O)c2cc(-c3cn(C)cn3)cc(Cl)c2F)C1 (stereo not drawn) [Compound I-85] | > 5.00 | > 5.00 | > 5.00 | 4.30 to 5.00
9 | Cn1cnc(-c2cc(Cl)c(F)c(C(=O)NNS(=O)(=O)CC3CCCN(S(=O)(=O)C4CC4)C3)c2)c1 (stereo not drawn) [Compound I-86] | > 5.00 | > 5.00 | > 5.00 | 4.30 to 5.00
10 | O=C(NNS(=O)(=O)CC1CCCCC1)c1cc(-n2ccnn2)cc(Cl)c1F [Compound I-87] | 4.30 to 5.00 | 4.30 to 5.00 | > 5.00 | 4.30 to 5.00
11 | CCNC(=O)N1CCC(CS(=O)(=O)NNC(=O)c2cc(-c3cn(C)cn3)cc(Cl)c2F)C1 (stereo not drawn) [Compound I-88] | > 5.00 | > 5.00 | 4.30 to 5.00 | 4.30 to 5.00
12 | Cn1cnc(-c2cc(Cl)c(F)c(C(=O)NNS(=O)(=O)CC3CCN(C(=O)CO)C3)c2)c1 (stereo not drawn) [Compound I-89] | 4.30 to 5.00 | > 5.00 | 4.30 to 5.00 | 4.30 to 5.00
13 | O=C(NNS(=O)(=O)CC1CCOCC1)c1cc(-n2ccnn2)cc(Cl)c1F [Compound I-90] | 4.30 to 5.00 | 4.30 to 5.00 | 4.30 to 5.00 | 4.30 to 5.00
14 | Cn1cnc(-c2cc(Cl)c(F)c(C(=O)NNS(=O)(=O)CC3CCCC(S(=O)(=O)C4CCC4)C3)c2)c1 (stereo not drawn) [Compound I-91] | > 5.00 | > 5.00 | > 5.00 | 4.30 to 5.00
15 | CC(C)S(=O)(=O)N1CCC(CS(=O)(=O)NNC(=O)c2cc(-c3cn(C)cn3)cc(Cl)c2F)C1 (stereo not drawn) [Compound I-92] | > 5.00 | > 5.00 | > 5.00 | 4.30 to 5.00
16 | Cn1cnc(-c2cc(Cl)c(F)c(C(=O)NNS(=O)(=O)C[C@H]3CC[C@H](N)CC3)c2)c1 [Compound I-93] | 4.30 to 5.00 | > 5.00 | 4.30 to 5.00 | 4.30 to 5.00
17 | CCCS(=O)(=O)N1CCCC(CS(=O)(=O)NNC(=O)c2cc(-c3cn(C)cn3)cc(Cl)c2F)C1 (stereo not drawn) [Compound I-94] | > 5.00 | > 5.00 | > 5.00 | 4.30 to 5.00
18 | Cn1cnc(-c2cc(Cl)c(F)c(C(=O)NNS(=O)(=O)CC3CN(C(=O)OC(C)(C)C)C3)c2)c1 [Compound I-95] | 4.30 to 5.00 | > 5.00 | > 5.00 | 4.30 to 5.00
19 | Cn1cnc(-c2cc(Cl)c(F)c(C(=O)NNS(=O)(=O)C[C@H]3CC[C@H](NC(=O)OC(C)(C)C)CC3)c2)c1 [Compound I-96] | > 5.00 | > 5.00 | > 5.00 | 4.30 to 5.00
20 | CCNC(=O)NC1CCCC(CS(=O)(=O)NNC(=O)c2cc(-c3cn(C)cn3)cc(Cl)c2F)C1 (stereo not drawn) [Compound I-97] | > 5.00 | > 5.00 | > 5.00 | 4.30 to 5.00
21 | Cc1ncnn1-c1cc(Cl)c(F)c(C(=O)NNS(=O)(=O)CC2CCOCC2)c1 [Compound I-100] | 4.30 to 5.00 | 4.30 to 5.00 | 4.30 to 5.00 | 4.30 to 5.00

Row | SMILES | pIC50 (KAT-5) | pIC50 (KAT-7) | pIC50 (KAT-6A) | pIC50 (KAT-8)
22 | CC(=O)N[C@H]1CC[C@H](CS(=O)(=O)NNC(=O)c2cc(-c3cn(C)cn3)cc(Cl)c2F)CC1 [Compound I-101] | > 5.00 | > 5.00 | > 5.00 | 4.30 to 5.00
23 | Cn1cnc(-c2cc(Cl)c(F)c(C(=O)NNS(=O)(=O)CC3CCCC(NC(=O)OC(C)(C)C)C3)c2)c1 (stereo not drawn) [Compound I-102] | > 5.00 | > 5.00 | > 5.00 | 4.30 to 5.00
24 | Cn1cnc(-c2cc(Cl)c(F)c(C(=O)NNS(=O)(=O)CC3CCCC(N)C3)c2)c1 (stereo not drawn) [Compound I-103] | 4.30 to 5.00 | > 5.00 | 4.30 to 5.00 | 4.30 to 5.00
25 | CN(C)C(=O)NC1CCCC(CS(=O)(=O)NNC(=O)c2cc(-c3cn(C)cn3)cc(Cl)c2F)C1 (stereo not drawn) [Compound I-104] | > 5.00 | > 5.00 | > 5.00 | 4.30 to 5.00
26 | CCNC(=O)N1CCCC(CS(=O)(=O)NNC(=O)c2cc(-c3cn(C)cn3)cc(Cl)c2F)C1 (stereo not drawn) [Compound I-105] | > 5.00 | > 5.00 | > 5.00 | 4.30 to 5.00
27 | Cn1cnc(-c2cc(Cl)c(F)c(C(=O)NNS(=O)(=O)CC3CCN(S(=O)(=O)C4CCC4)C3)c2)c1 (stereo not drawn) [Compound I-106] | > 5.00 | > 5.00 | > 5.00 | 4.30 to 5.00
28 | CCNC(=O)N[C@H]1C[C@@H](CS(=O)(=O)NNC(=O)c2cc(-c3cn(C)cn3)cc(Cl)c2F)C1 [Compound I-107] | > 5.00 | > 5.00 | > 5.00 | 4.30 to 5.00
29 | Cn1cnc(-c2cc(Cl)c(F)c(C(=O)NNS(=O)(=O)N3CCOCC3)c2)c1 [Compound I-108] | 4.30 to 5.00 | > 5.00 | 4.30 to 5.00 | 4.30 to 5.00
30 | CCNC(=O)N[C@H]1CC[C@H](CS(=O)(=O)NNC(=O)c2cc(-c3cn(C)cn3)cc(Cl)c2F)CC1 [Compound I-109] | > 5.00 | > 5.00 | > 5.00 | 4.30 to 5.00
31 | Cn1cnc(-c2cc(Cl)c(F)c(C(=O)NNS(=O)(=O)c3ccccc3)c2)c1 [Compound I-110] | > 5.00 | > 5.00 | > 5.00 | 4.30 to 5.00
32 | Cn1cnc(-c2cc(Cl)c(F)c(C(=O)NNS(=O)(=O)Cc3ccccc3)c2)c1 [Compound I-111] | > 5.00 | > 5.00 | > 5.00 | 4.30 to 5.00
33 | CCNC(=O)N[C@H]1C[C@H](CS(=O)(=O)NNC(=O)c2cc(-c3cn(C)cn3)cc(Cl)c2F)C1 [Compound I-112] | > 5.00 | > 5.00 | 4.30 to 5.00 | 4.30 to 5.00
34 | Cn1cnc(-c2cc(Cl)c(F)c(C(=O)NNS(=O)(=O)C[C@H]3C[C@@H](N)C3)c2)c1 [Compound I-113] | 4.30 to 5.00 | > 5.00 | 4.30 to 5.00 | 4.30 to 5.00
35 | Cn1cnc(-c2cc(Cl)c(F)c(C(=O)NNS(=O)(=O)C[C@H]3C[C@@H](NC(=O)OC(C)(C)C)C3)c2)c1 [Compound I-114] | > 5.00 | > 5.00 | > 5.00 | 4.30 to 5.00
36 | Cn1cnc(-c2cc(Cl)c(F)c(C(=O)NNS(=O)(=O)CC3CCCC(NC(N)=O)C3)c2)c1 (stereo not drawn) [Compound I-115] | > 5.00 | > 5.00 | > 5.00 | 4.30 to 5.00
37 | CC(=O)N[C@H]1C[C@@H](CS(=O)(=O)NNC(=O)c2cc(-c3cn(C)cn3)cc(Cl)c2F)C1 [Compound I-116] | > 5.00 | > 5.00 | > 5.00 | 4.30 to 5.00
38 | Cn1cnc(-c2cc(Cl)c(F)c(C(=O)NNS(=O)(=O)C[C@@H]3CCN(C(=O)OC(C)(C)C)C3)c2)c1 [Compound I-117] | > 5.00 | > 5.00 | > 5.00 | 4.30 to 5.00
39 | CNC(=O)NC1CCCC(CS(=O)(=O)NNC(=O)c2cc(-c3cn(C)cn3)cc(Cl)c2F)C1 (stereo not drawn) [Compound I-118] | > 5.00 | > 5.00 | > 5.00 | 4.30 to 5.00
40 | COCCc1nc(-c2cc(Cl)c(F)c(C(=O)NNS(=O)(=O)C3CCOCC3)c2)cn1C [Compound I-119] | 4.30 to 5.00 | 4.30 to 5.00 | 4.30 to 5.00 | 4.30 to 5.00
41 | Cn1cnc(-c2cc(Cl)c(F)c(C(=O)NNS(=O)(=O)C[C@@H]3CCNC3)c2)c1 [Compound I-120] | 4.30 to 5.00 | > 5.00 | 4.30 to 5.00 | 4.30 to 5.00
42 | Cn1cnc(-c2cc(Cl)c(F)c(C(=O)NNS(=O)(=O)C[C@H]3CCNC3)c2)c1 [Compound I-121] | 4.30 to 5.00 | > 5.00 | 4.30 to 5.00 | 4.30 to 5.00
